We go through two molecules from US20110152166A1, “METHOD OF MODULATION OF PROTEIN PHOSPHORYLATION-DEPENDENT CONFORMATIONAL TRANSITIONS WITH LOW MOLECULAR WEIGHT COMPOUNDS” (priority 2006, published 2011).

Holding throughout (assay): PDK1 activity assay with T308tide
What all share (type): biochemical

One experiment has as its target T1, GST-PDK1 [Arg131Lys] (Homo sapiens, UniProt O15530, R131K).
T1 construct: different protein constructs, comprising the full length protein or the catalytic domain alone; made in house; host or cells: HEK293 cells (pEBG-2T-PDK1 mutant)
T1 sequence (O15530 1-556 R131K): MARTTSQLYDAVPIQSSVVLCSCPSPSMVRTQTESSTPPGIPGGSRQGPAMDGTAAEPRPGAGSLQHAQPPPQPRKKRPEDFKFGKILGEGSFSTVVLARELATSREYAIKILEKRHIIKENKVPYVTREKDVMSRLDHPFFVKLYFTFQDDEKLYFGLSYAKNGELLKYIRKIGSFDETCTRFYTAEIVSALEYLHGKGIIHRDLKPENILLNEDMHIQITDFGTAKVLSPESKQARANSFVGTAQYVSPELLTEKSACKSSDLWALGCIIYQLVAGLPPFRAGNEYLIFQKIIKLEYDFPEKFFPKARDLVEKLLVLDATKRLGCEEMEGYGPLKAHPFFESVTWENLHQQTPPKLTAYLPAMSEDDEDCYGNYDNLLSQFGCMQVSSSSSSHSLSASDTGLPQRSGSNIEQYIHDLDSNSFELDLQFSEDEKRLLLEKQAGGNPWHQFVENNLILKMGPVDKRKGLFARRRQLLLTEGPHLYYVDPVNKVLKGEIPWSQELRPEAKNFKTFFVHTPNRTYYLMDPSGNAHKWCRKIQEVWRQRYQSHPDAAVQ

Another experiment has as its target T2, GST-PDK1 [Gln150Met] (Homo sapiens, UniProt O15530, Q150M).
T2 construct: different protein constructs, comprising the full length protein or the catalytic domain alone; made in house; host or cells: HEK293 cells (pEBG-2T-PDK1 mutant)
T2 sequence (O15530 1-556 Q150M): T1 sequence (O15530 1-556 R131K) with K131R, Q150M

For another experiment, the target named is T3, GST-PDK1 [Leu155Ser] (Homo sapiens, UniProt O15530, L155S).
T3 construct: different protein constructs, comprising the full length protein or the catalytic domain alone; made in house; host or cells: HEK293 cells (pEBG-2T-PDK1 mutant)
T3 sequence (O15530 1-556 L155S): T1 sequence (O15530 1-556 R131K) with K131R, L155S
As to conditions: for AC50: GST-PDK1 [Leu155Ser].

Substitutions are numbered along the chain they refer to. Ends that are not written are not given here.

As for `O=C(O)CSC(CC(=O)c1ccc(Cl)cc1)c1ccccc1` (centres unmarked) [Compound 1], the AC50 is 51 ± 15 µM at GST-PDK1 [Arg131Lys], 177 ± 64 µM at GST-PDK1 [Gln150Met] and “No Effect” at GST-PDK1 [Leu155Ser]. In addition, the Max. activity at GST-PDK1 [Arg131Lys] came to 1.13 ± 0.09 U/mg; on GST-PDK1 [Gln150Met], 2.28 ± 0.26 U/mg. Also, at GST-PDK1 [Leu155Ser] (Leu155 replaced with Ser, constitutively active), the “activation of PDK1 mutant (in words)” value is “could not be further activated”.
For “REPRILSEEEQEMFRDFDYIADWC [PIFtide, reference compound]”, the AC50 on GST-PDK1 [Arg131Lys] is 0.13 ± 0.02 µM; at GST-PDK1 [Gln150Met], 0.86 ± 0.25 µM; at GST-PDK1 [Leu155Ser], “No Effect”. Also, the Max. activity on GST-PDK1 [Arg131Lys] is given as 0.77 ± 0.02 U/mg; on GST-PDK1 [Gln150Met], 2.11 ± 0.15 U/mg.
